Measured values published in patent US8029764B2, “Methods for detection of colorectal cancer” (The Johns Hopkins University, priority 2001, dated 2011).

Test system: colorectal tissue transcripts
Experiment: SAGE of normal, adenoma and cancer colorectal tissue (transcript tag counts)
Design: species or system human
From the text: In an effort to identify potential molecular markers of early colorectal tumors, we have here analyzed gene expression in benign and malignant colorectal tumors in an unbiased and comprehensive fashion. We used SAGE to analyze global gene expression in normal, benign and malignant colorectal tissue. SAGE is a gene expression profiling method that associates individual mRNA transcripts with 15-base tags derived from specific positions near their 3′ termini (3). The abundance of each tag provides a quantitative measure of the transcript level present within the mRNA population studied. SAGE is not dependent on pre-existing databases of expressed genes, and therefore provides an unbiased view of gene expression profiles. For the current study, SAGE libraries derived from two samples of normal colonic epithelium, two colorectal adenomas, and two colorectal cancers were analyzed.
SAGE. For the initial SAGE^3 of benign tumors, fresh adenomas were obtained from surgical specimens derived from FAP patients. Adenomas from FAP patients were employed because of the ready availability of small lesions and the certainty of inactivation of the APC pathway which initiates the formation of the majority of sporadic tumors. After histopathological verification of the neoplastic nature of the lesion (>70% neoplastic cells), total RNA was isolated by solubilizing the tissue in RNAgents Lysis Buffer (Promega, Madison, Wis.) followed by ultracentrifugation over a cesium chloride gradient. mRNA selection was performed from the purified total RNA using oligo(dT) cellulose (Life Technologies, Gaithersburg, Md.). […] Tags were extracted from the raw sequence data and, after excluding repeated ditags, linker sequences, and tags from the polyrnorphic Major Histocompatibility loci, the resulting tag libraries were compared and statistical analysis performed using SAGE software, version 4.0. Data from the libraries are publicly available at the Uniform Resource Locator (URL) address for the http file type found on the www host server that has a domain name of ncbi.nlm.nih.gov, and a path to the directory SAGE, and detailed SAGE protocols are available at the Uniform Resource Locator (URL) address for the http file type found on the www host server that has a domain name of sagenet.org, and file name of sage_protocol.htn.

[1] = normal colorectal tissue library 1
[2] = normal colorectal tissue library 2

Row | Sequence | AD1 (SAGE tag count) (SAGE library AD1) | AD2 (SAGE tag count) (SAGE library AD2) | CA1 (SAGE tag count) (SAGE library CA1) | CA2 (SAGE tag count) (SAGE library CA2) | NC1 (SAGE tag count) (SAGE library NC1) | NC2 (SAGE tag count) (SAGE library NC2) | AD1 (SAGE tag count) (adenoma library 1) | AD2 (SAGE tag count) (adenoma library 2) | CA1 (SAGE tag count) (cancer library 1) | CA2 (SAGE tag count) (cancer library 2) | NC1 (SAGE tag count) [1] | NC2 (SAGE tag count) [2]
1 | GTGCCTGAGA (chemistry not fully specified) | 2 | 6 | 7 | 3 | 18 | 15 | – | – | – | – | – | –
2 | GCACAGGTCA (chemistry not fully specified) | 1 | 0 | 1 | 1 | 5 | 9 | – | – | – | – | – | –
3 | ATTTCAAGAT (chemistry not fully specified) | 0 | 2 | 1 | 0 | 35 | 21 | – | – | – | – | – | –
4 | CGAGGGGCCA (chemistry not fully specified) | 18 | 18 | 12 | 32 | 110 | 47 | – | – | – | – | – | –
5 | ATGCGGAGTC (chemistry not fully specified) | 5 | 3 | 2 | 4 | 14 | 13 | – | – | – | – | – | –
6 | GTTTAGAGGG (chemistry not fully specified) | – | – | – | – | – | – | 0 | 0 | 2 | 1 | 5 | 16
7 | CCACTGCACC (chemistry not fully specified) | 5 | 5 | 6 | 14 | 21 | 19 | – | – | – | – | – | –
8 | TATGATGAGC (chemistry not fully specified) | – | – | – | – | – | – | 2 | 2 | 1 | 5 | 13 | 21
9 | TTATGGTGTG (chemistry not fully specified) | – | – | – | – | – | – | 0 | 0 | 0 | 0 | 11 | 17
10 | GCTGGCACAT (chemistry not fully specified) | 1 | 0 | 6 | 0 | 15 | 14 | – | – | – | – | – | –
11 | CTGGCCCTCG (chemistry not fully specified) | 1 | 3 | 15 | 14 | 186 | 52 | – | – | – | – | – | –
12 | TTGGGGTTTC (chemistry not fully specified) | – | – | – | – | – | – | 50 | 81 | 67 | 50 | 111 | 184
13 | GCCGACCAGG (chemistry not fully specified) | 15 | 8 | 19 | 9 | 46 | 47 | – | – | – | – | – | –
14 | CCGGCTTGAG (chemistry not fully specified) | 0 | 0 | 0 | 0 | 7 | 4 | – | – | – | – | – | –
15 | GCCAGACACC (chemistry not fully specified) | 3 | 4 | 1 | 2 | 19 | 9 | – | – | – | – | – | –
16 | AGCAGGAGCA (chemistry not fully specified) | 6 | 3 | 7 | 6 | 50 | 14 | – | – | – | – | – | –
17 | GGCCCTGCAG (chemistry not fully specified) | 1 | 0 | 5 | 1 | 14 | 7 | – | – | – | – | – | –

Row | Sequence | AD1 (SAGE tag count) (SAGE library AD1) | AD2 (SAGE tag count) (SAGE library AD2) | CA1 (SAGE tag count) (SAGE library CA1) | CA2 (SAGE tag count) (SAGE library CA2) | NC1 (SAGE tag count) (SAGE library NC1) | NC2 (SAGE tag count) (SAGE library NC2) | AD1 (SAGE tag count) (adenoma library 1) | AD2 (SAGE tag count) (adenoma library 2) | CA1 (SAGE tag count) (cancer library 1) | CA2 (SAGE tag count) (cancer library 2) | NC1 (SAGE tag count) [1] | NC2 (SAGE tag count) [2]
18 | GGAGGCGCTC (chemistry not fully specified) | 1 | 1 | 0 | 1 | 5 | 11 | – | – | – | – | – | –
19 | CGTGGGTGGG (chemistry not fully specified) | 1 | 0 | 0 | 1 | 1 | 10 | – | – | – | – | – | –
20 | ATGGTCTACG (chemistry not fully specified) | 0 | 0 | 1 | 0 | 10 | 5 | – | – | – | – | – | –
21 | TTTCCTCTCA (chemistry not fully specified) | – | – | – | – | – | – | 6 | 2 | 4 | 3 | 21 | 8
22 | CATAGGTTTA (chemistry not fully specified) | 4 | 1 | 5 | 0 | 66 | 39 | – | – | – | – | – | –
23 | TTCCACTAAC (chemistry not fully specified) | – | – | – | – | – | – | 7 | 4 | 5 | 5 | 29 | 9
24 | GTGGCGGGAA (chemistry not fully specified) | 1 | 0 | 4 | 0 | 3 | 15 | – | – | – | – | – | –
25 | AAATCTGGCA (chemistry not fully specified) | 2 | 4 | 2 | 0 | 16 | 15 | – | – | – | – | – | –
26 | TTTGGTTTCA (chemistry not fully specified) | – | – | – | – | – | – | 0 | 0 | 0 | 0 | 2 | 13
27 | ATGACGCTCA (chemistry not fully specified) | 6 | 5 | 3 | 4 | 22 | 18 | – | – | – | – | – | –
28 | AGGATGGTCC (chemistry not fully specified; the letters are possibly those of the target site) | 5 | 3 | 6 | 8 | 34 | 19 | – | – | – | – | – | –
29 | GTGTTGGGGG (chemistry not fully specified) | – | – | – | – | – | – | 8 | 6 | 1 | 3 | 21 | 19
30 | CAAATAAAAG (chemistry not fully specified) | 2 | 0 | 1 | 1 | 9 | 12 | – | – | – | – | – | –
31 | GAGAGCTCCC (chemistry not fully specified) | 3 | 0 | 2 | 1 | 5 | 11 | – | – | – | – | – | –
32 | CTCAGAACTT (chemistry not fully specified) | 1 | 0 | 0 | 0 | 18 | 3 | – | – | – | – | – | –
33 | AGGCCAAGGG (chemistry not fully specified) | 3 | 1 | 3 | 4 | 21 | 6 | – | – | – | – | – | –
34 | AGTGGGCTCA (chemistry not fully specified) | 0 | 1 | 0 | 0 | 3 | 8 | – | – | – | – | – | –
